Values joined by “and” are separate entries in the source; they are usually repeats but may differ in a detail not shown here. Equal values may be shown once. “Also recorded” adds a separate entry of the source.
Key:
[1] = tested on: PSMA positive LNCaP cells; assay: Cell uptake in PSMA positive LNCaP cells; assay type: cell-based; conditions: 1 hr incubation at 37° C.
[2] = In vivo biodistribution in mice; parameters: species or system normal CD-1 male mice; conditions: for bone to blood ratio / bone to muscle ratio / Biodistribution: Blood / Biodistribution: Bone / Biodistribution: Brain / Biodistribution: Heart / Biodistribution: Kidney / Biodistribution: Liver / Biodistribution: Lung / Biodistribution: Muscle / Biodistribution: Pancreas / Biodistribution: Skin / Biodistribution: Spleen: iv; for Biodistribution result in words (organ uptake, retention, excretion): normal mice after iv injection
How it was run: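 Uptake values are % injected dose per gram of wet tissue, from gamma counting of weighed organs with tibia plus femur taken as bone. Tracers (20-30 μCi per animal) were given i.v. to healthy male CD-1 mice (25-30 g), with sacrifice at 2, 30, 60 and 120 min post injection.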

[3] = In vitro binding to hydroxyapatite; conditions: 20 mg hydroxyapatite in saline, 10 min at room temperature
How it was run: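 Binding is given as the percentage of ^68Ga activity retained by hydroxyapatite, measured by gamma counting of the solid versus the pooled supernatant and saline washes. The tracer (1 μCi) was exposed for 10 min at room temperature to hydroxyapatite pre-soaked 24 h in isotonic saline.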

[4] = Micro-PET imaging in normal mice; assay type: in vivo, normal CD-1 male mice; conditions: 15 min scan at 60 min post-injection
Experimental: [^68Ga]1a, [^68Ga]BPAMD and [^18F]NaF were tested in normal CD-1 male mice. [^68Ga]1g was tested in PSMA expressing LNCaP tumor bearing nude mice. Mice received 300-500 uCi radiotracer through a tail vein injection. PET imaging was performed under isoflurane anaesthesia (2% isoflurane, 1.5 L/min oxygen). The microPET imaging was performed with a small animal PET (Mosaic by Phillips, USA). During PET measurements, the animals were placed in the prone position. At 60 min post injection of the radiotracer, data acquisition was performed for 15 min.

For `O=C(O)CCC(CP(=O)(O)O)C(=O)O` (centres unmarked) [2-PMPA, 2-(phosphonomethyl)pentane-1,5-dioic acid, reference compound], the “Blocking of [68Ga]1g cell uptake to PSMA positive LNCaP cells” value [1] was “blocked the cell uptake”.
With `O=C([O-])CN(CCN(CC(=O)[O-])Cc1cc(CCC(=O)NC(P(=O)(O)O)P(=O)(O)O)ccc1[O-])Cc1cc(CCC(=O)O)ccc1[O-].[68Ga+3]` [[^68Ga]1a] the “bone to blood ratio” value ([2]; 2 min) was 0.9, the “bone to muscle ratio” value ([2]; 2 min) was 4.8 and the “Biodistribution: Blood” value ([2]; 2 min post injection) was 9.39 ± 0.93 % dose/g. For the same molecule, the “Biodistribution: Bone” value ([2]; 2 min post injection) was 8.60 ± 0.85 % dose/g, the “Biodistribution: Brain” value ([2]; 2 min post injection) was 0.31 ± 0.10 % dose/g and the “Biodistribution: Heart” value ([2]; 2 min post injection) was 3.28 ± 0.13 % dose/g. The “Biodistribution: Kidney” value ([2]; 2 min post injection) was 31.2 ± 1.92 % dose/g, the “Biodistribution: Liver” value ([2]; 2 min post injection) was 1.95 ± 0.15 % dose/g and the “Biodistribution: Lung” value ([2]; 2 min post injection) was 4.28 ± 0.21 % dose/g. The “Biodistribution: Muscle” value ([2]; 2 min post injection) was 1.80 ± 0.16 % dose/g, the “Biodistribution: Pancreas” value ([2]; 2 min post injection) was 1.58 ± 0.10 % dose/g and the “Biodistribution: Skin” value ([2]; 2 min post injection) was 2.18 ± 0.28 % dose/g. The “Biodistribution: Spleen” value ([2]; 2 min post injection) was 1.89 ± 0.20 % dose/g, the “bone to blood ratio” value ([2]; 30 min) was 36 and the “bone to muscle ratio” value ([2]; 30 min) was 96. For the same molecule, the “Biodistribution: Blood” value ([2]; 30 min (0.5 hr) post injection) was 0.45 ± 0.10 % dose/g, the “Biodistribution: Bone” value ([2]; 30 min (0.5 hr) post injection) was 16.0 ± 1.22 % dose/g and the “Biodistribution: Brain” value ([2]; 30 min (0.5 hr) post injection) was 0.02 ± 0.01 % dose/g. The “Biodistribution: Heart” value ([2]; 30 min (0.5 hr) post injection) was 0.22 ± 0.02 % dose/g, the “Biodistribution: Kidney” value ([2]; 30 min (0.5 hr) post injection) was 1.54 ± 0.29 % dose/g and the “Biodistribution: Liver” value ([2]; 30 min (0.5 hr) post injection) was 0.32 ± 0.20 % dose/g. For the same molecule, the “Biodistribution: Lung” value ([2]; 30 min (0.5 hr) post injection) was 0.38 ± 0.03 % dose/g, the “Biodistribution: Muscle” value ([2]; 30 min (0.5 hr) post injection) was 0.17 ± 0.03 % dose/g and the “Biodistribution: Pancreas” value ([2]; 30 min (0.5 hr) post injection) was 0.30 ± 0.27 % dose/g. The “Biodistribution: Skin” value ([2]; 30 min (0.5 hr) post injection) was 0.42 ± 0.12 % dose/g, the “Biodistribution: Spleen” value ([2]; 30 min (0.5 hr) post injection) was 0.17 ± 0.01 % dose/g and the “bone to blood ratio” value ([2]; 60 min) was 118. For the same molecule, the “Biodistribution: Blood” value ([2]; 60 min (1 hr) post injection) was 0.20 ± 0.06 % dose/g, the “Biodistribution: Bone” value ([2]; 60 min (1 hr) post injection) was 23.5±1.4 % dose/g and 23.5 ± 1.42 % dose/g and the “Biodistribution: Brain” value ([2]; 60 min (1 hr) post injection) was 0.02 ± 0.01 % dose/g. For the same molecule, the “Biodistribution: Heart” value ([2]; 60 min (1 hr) post injection) was 0.12 ± 0.02 % dose/g, the “Biodistribution: Kidney” value ([2]; 60 min (1 hr) post injection) was 1.63 ± 0.71 % dose/g and the “Biodistribution: Liver” value ([2]; 60 min (1 hr) post injection) was 0.17 ± 0.01 % dose/g. The “Biodistribution: Lung” value ([2]; 60 min (1 hr) post injection) was 0.21 ± 0.03 % dose/g, the “Biodistribution: Muscle” value ([2]; 60 min (1 hr) post injection) was 0.08 ± 0.02 % dose/g and the “Biodistribution: Pancreas” value ([2]; 60 min (1 hr) post injection) was 0.09 ± 0.02 % dose/g. The “Biodistribution: Skin” value ([2]; 60 min (1 hr) post injection) was 0.19 ± 0.05 % dose/g, the “Biodistribution: Spleen” value ([2]; 60 min (1 hr) post injection) was 0.10 ± 0.02 % dose/g and the “bone to blood ratio” value ([2]; 120 min) was 320. The “bone to muscle ratio” value ([2]; 120 min) was 447, the “Biodistribution: Blood” value ([2]; 120 min post injection) was 0.07 ± 0.03 % dose/g and the “Biodistribution: Bone” value ([2]; 120 min post injection) was 23.9 ± 1.99 % dose/g. The “Biodistribution: Brain” value ([2]; 120 min post injection) was 0.01 ± 0.00 % dose/g, the “Biodistribution: Heart” value ([2]; 120 min post injection) was 0.07 ± 0.01 % dose/g and the “Biodistribution: Kidney” value ([2]; 120 min post injection) was 0.92 ± 0.10 % dose/g. The “Biodistribution: Liver” value ([2]; 120 min post injection) was 0.14 ± 0.02 % dose/g, the “Biodistribution: Lung” value ([2]; 120 min post injection) was 0.12 ± 0.03 % dose/g and the “Biodistribution: Muscle” value ([2]; 120 min post injection) was 0.05 ± 0.01 % dose/g. The “Biodistribution: Pancreas” value ([2]; 120 min post injection) was 0.05 ± 0.01 % dose/g, the “Biodistribution: Skin” value ([2]; 120 min post injection) was 0.13 ± 0.03 % dose/g and the “Biodistribution: Spleen” value ([2]; 120 min post injection) was 0.09 ± 0.03 % dose/g. The “Biodistribution result in words (organ uptake, retention, excretion)” value [2] was “excellent bone uptake and fast kidney excretion; also recorded: excellent bone uptake and retention”, the “Hydroxyapatite Binding (%)” value [3] was 92.3 ± 1.1% and the “Micro-PET localization (in words)” value [4] was “localized in the spines of mice”.
For `O=C(O)CN1CCN(CC(=O)O)CCN(CC(=O)NC(P(=O)(O)O)P(=O)(O)O)CCN(CC(=O)O)CC1.[68Ga]` [[^68Ga]BPAMD, reference compound], the “bone to blood ratio” value ([2]; 2 min) was 0.8, the “bone to muscle ratio” value ([2]; 2 min) was 4.3 and the “Biodistribution: Blood” value ([2]; 2 min post injection) was 9.45 ± 0.55 % dose/g. The “Biodistribution: Bone” value ([2]; 2 min post injection) was 7.07 ± 0.94 % dose/g, the “Biodistribution: Brain” value ([2]; 2 min post injection) was 0.26 ± 0.01 % dose/g and the “Biodistribution: Heart” value ([2]; 2 min post injection) was 2.74 ± 0.23 % dose/g. The “Biodistribution: Kidney” value ([2]; 2 min post injection) was 22.1 ± 8.80 % dose/g, the “Biodistribution: Liver” value ([2]; 2 min post injection) was 1.92 ± 0.31 % dose/g and the “Biodistribution: Lung” value ([2]; 2 min post injection) was 4.58 ± 0.36 % dose/g. For the same molecule, the “Biodistribution: Muscle” value ([2]; 2 min post injection) was 1.63 ± 0.35 % dose/g, the “Biodistribution: Pancreas” value ([2]; 2 min post injection) was 1.73 ± 0.11 % dose/g and the “Biodistribution: Skin” value ([2]; 2 min post injection) was 2.57 ± 0.53 % dose/g. The “Biodistribution: Spleen” value ([2]; 2 min post injection) was 1.90 ± 0.14 % dose/g, the “bone to blood ratio” value ([2]; 30 min) was 10 and the “bone to muscle ratio” value ([2]; 30 min) was 19. For the same molecule, the “Biodistribution: Blood” value ([2]; 30 min (0.5 hr) post injection) was 1.02 ± 0.19 % dose/g, the “Biodistribution: Bone” value ([2]; 30 min (0.5 hr) post injection) was 10.5 ± 0.6 % dose/g and the “Biodistribution: Brain” value ([2]; 30 min (0.5 hr) post injection) was 0.06 ± 0.02 % dose/g. For the same molecule, the “Biodistribution: Heart” value ([2]; 30 min (0.5 hr) post injection) was 0.29 ± 0.02 % dose/g, the “Biodistribution: Kidney” value ([2]; 30 min (0.5 hr) post injection) was 1.46 ± 0.19 % dose/g and the “Biodistribution: Liver” value ([2]; 30 min (0.5 hr) post injection) was 0.22 ± 0.02 % dose/g. The “Biodistribution: Lung” value ([2]; 30 min (0.5 hr) post injection) was 0.50 ± 0.16 % dose/g, the “Biodistribution: Muscle” value ([2]; 30 min (0.5 hr) post injection) was 0.55 ± 0.11 % dose/g and the “Biodistribution: Pancreas” value ([2]; 30 min (0.5 hr) post injection) was 0.27 ± 0.14 % dose/g. For the same molecule, the “Biodistribution: Skin” value ([2]; 30 min (0.5 hr) post injection) was 0.39 ± 0.15 % dose/g, the “Biodistribution: Spleen” value ([2]; 30 min (0.5 hr) post injection) was 0.22 ± 0.14 % dose/g and the “bone to blood ratio” value ([2]; 60 min) was 10. The “bone to muscle ratio” value ([2]; 60 min) was 30, the “Biodistribution: Blood” value ([2]; 60 min (1 hr) post injection) was 0.93 ± 0.06 % dose/g and the “Biodistribution: Bone” value ([2]; 60 min (1 hr) post injection) was 9.21 ± 0.90 % dose/g. For the same molecule, the “Biodistribution: Brain” value ([2]; 60 min (1 hr) post injection) was 0.04 ± 0.00 % dose/g, the “Biodistribution: Heart” value ([2]; 60 min (1 hr) post injection) was 0.37 ± 0.06 % dose/g and the “Biodistribution: Kidney” value ([2]; 60 min (1 hr) post injection) was 2.88 ± 1.51 % dose/g. For the same molecule, the “Biodistribution: Liver” value ([2]; 60 min (1 hr) post injection) was 0.25 ± 0.03 % dose/g, the “Biodistribution: Lung” value ([2]; 60 min (1 hr) post injection) was 0.51 ± 0.09 % dose/g and the “Biodistribution: Muscle” value ([2]; 60 min (1 hr) post injection) was 0.31 ± 0.04 % dose/g. For the same molecule, the “Biodistribution: Pancreas” value ([2]; 60 min (1 hr) post injection) was 0.30 ± 0.02 % dose/g, the “Biodistribution: Skin” value ([2]; 60 min (1 hr) post injection) was 0.60 ± 0.08 % dose/g and the “Biodistribution: Spleen” value ([2]; 60 min (1 hr) post injection) was 0.21 ± 0.02 % dose/g. For the same molecule, the “bone to blood ratio” value ([2]; 120 min) was 11, the “bone to muscle ratio” value ([2]; 120 min) was 33 and the “Biodistribution: Blood” value ([2]; 120 min post injection) was 0.90 ± 0.41 % dose/g. The “Biodistribution: Bone” value ([2]; 120 min post injection) was 9.62 ± 0.71 % dose/g, the “Biodistribution: Brain” value ([2]; 120 min post injection) was 0.03 ± 0.01 % dose/g and the “Biodistribution: Heart” value ([2]; 120 min post injection) was 0.26 ± 0.07 % dose/g. The “Biodistribution: Kidney” value ([2]; 120 min post injection) was 1.09 ± 0.26 % dose/g, the “Biodistribution: Liver” value ([2]; 120 min post injection) was 0.31 ± 0.11 % dose/g and the “Biodistribution: Lung” value ([2]; 120 min post injection) was 0.45 ± 0.10 % dose/g. For the same molecule, the “Biodistribution: Muscle” value ([2]; 120 min post injection) was 0.29 ± 0.06 % dose/g, the “Biodistribution: Pancreas” value ([2]; 120 min post injection) was 0.33 ± 0.07 % dose/g and the “Biodistribution: Skin” value ([2]; 120 min post injection) was 0.55 ± 0.04 % dose/g. The “Biodistribution: Spleen” value ([2]; 120 min post injection) was 0.25 ± 0.08 % dose/g, the “Biodistribution result in words (organ uptake, retention, excretion)” value [2] was “less bone uptake and retention” and the “Hydroxyapatite Binding (%)” value [3] was 90.6 ± 6.0%. For the same molecule, the “Micro-PET localization (in words)” value [4] was “localized in the spines of mice”.
